Measurements reported in the supplement of paper PMC10307832.

Columns and labels:
Test in all cases: relative viability (nuclei count vs DMSO), 5 days (fraction); higher = more cells survive
[1] = compound: CC(C)(C)c1cc(NC(=O)Nc2ccc(-c3cn4c(n3)sc3cc(OCCN5CCOCC5)ccc34)cc2)no1 [Quizartinib] + CC(=O)Nc1cccc(-n2c(=O)n(C3CC3)c(=O)c3c(Nc4ccc(I)cc4F)n(C)c(=O)c(C)c32)c1 [Trametinib] (partner 0.02 µM)
In short: (§1)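 Lung cancer cell lines in 1536-well plates were dosed by pin tool the day after seeding, either with one drug alone or with a fixed anchor-drug dose plus five library-drug doses (not always all listed) in √10 steps. After 5 days, cells were fixed and their nuclei stained in one step (final 0.05% Triton X-100, 1% formaldehyde, 1 ug/ml Hoechst), then counted on 4× images. Relative viability is the nuclei count in treated wells divided by that in vehicle wells. Values are medians of duplicate plates.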

[2] = compound: CC(C)(C)c1cc(NC(=O)Nc2ccc(-c3cn4c(n3)sc3cc(OCCN5CCOCC5)ccc34)cc2)no1 [Quizartinib] + CC(=O)c1c(C)c2cnc(Nc3ccc(N4CCNCC4)cn3)nc2n(C2CCCC2)c1=O [Palbociclib] (partner 0.5 µM)
In short: as §1

[3] = compound: CC(C)(C)c1cc(NC(=O)Nc2ccc(-c3cn4c(n3)sc3cc(OCCN5CCOCC5)ccc34)cc2)no1 [Quizartinib] + CC1(C)CCC(c2ccc(Cl)cc2)=C(CN2CCN(c3ccc(C(=O)NS(=O)(=O)c4ccc(N[C@H](CCN5CCOCC5)CSc5ccccc5)c(S(=O)(=O)C(F)(F)F)c4)cc3)CC2)C1 [Navitoclax] (partner 0.5 µM)
In short: as §1

[4] = compound: CC(C)(C)c1cc(NC(=O)Nc2ccc(-c3cn4c(n3)sc3cc(OCCN5CCOCC5)ccc34)cc2)no1 [Quizartinib] + C[C@]1(O)C[C@@H](c2nc(-c3ccc4ccc(-c5ccccc5)nc4c3)c3c(N)nccn32)C1 [Linsitinib] (partner 1 µM)
In short: as §1

| Cell Line | relative viability ([1]; first compound 0.001 µM) | relative viability ([1]; first compound 0.003162 µM) | relative viability ([1]; first compound 0.01 µM) | relative viability ([1]; first compound 0.03162 µM) | relative viability ([1]; first compound 0.1 µM) | relative viability ([2]; first compound 0.001 µM) | relative viability ([2]; first compound 0.003162 µM) | relative viability ([2]; first compound 0.01 µM) | relative viability ([2]; first compound 0.03162 µM) | relative viability ([2]; first compound 0.1 µM) | relative viability ([3]; first compound 0.001 µM) | relative viability ([3]; first compound 0.003162 µM) | relative viability ([3]; first compound 0.01 µM) | relative viability ([3]; first compound 0.03162 µM) | relative viability ([3]; first compound 0.1 µM) | relative viability ([4]; first compound 0.001 µM) | relative viability ([4]; first compound 0.003162 µM) | relative viability ([4]; first compound 0.01 µM) | relative viability ([4]; first compound 0.03162 µM) | relative viability ([4]; first compound 0.1 µM) |
| --- | --- | --- | --- | --- | --- | --- | --- | --- | --- | --- | --- | --- | --- | --- | --- | --- | --- | --- | --- | --- |
| NCI-H1755 | 0.744 | 0.851 | 0.856 | 0.784 | 0.755 | 0.418 | 0.451 | 0.471 | 0.446 | 0.41 | 0.925 | 0.976 | 1.01 | 1 | 0.926 | 0.611 | 0.997 | 0.963 | 1 | 0.99 |
| NCI-H1792 | 0.374 | 0.429 | 0.412 | 0.457 | 0.293 | – | 0.654 | 0.702 | 0.617 | 0.66 | 0.584 | 0.646 | 0.697 | 0.617 | 0.587 | 0.334 | 0.496 | 0.602 | 0.466 | 0.587 |
| NCI-H1793 | 0.395 | 0.435 | 0.444 | 0.448 | 0.452 | 0.331 | 0.277 | 0.33 | 0.329 | 0.34 | 0.414 | 0.304 | 0.496 | 0.423 | 0.331 | 0.833 | 0.896 | 0.843 | 0.885 | 0.829 |
| NCI-H1915 | 0.28 | 0.31 | 0.331 | 0.29 | 0.313 | 0.507 | 0.433 | 0.482 | 0.552 | 0.474 | 0.771 | 0.75 | 0.833 | 0.822 | 0.785 | 0.761 | 1.03 | 1.11 | 1.08 | 1.15 |
| NCI-H1944 | 0.453 | 0.405 | 0.419 | 0.448 | 0.313 | 0.345 | 0.306 | 0.293 | 0.35 | 0.294 | 0.888 | 1.07 | 1.06 | 1.08 | 1.07 | 0.865 | 1.16 | 1.12 | 1.39 | 1.24 |
| NCI-H1975 | 0.285 | 0.381 | 0.287 | 0.435 | 0.322 | 0.588 | 0.605 | 0.599 | 0.552 | 0.538 | 1.02 | 1.1 | 1.19 | 1.06 | 1.1 | 0.964 | 0.85 | 0.956 | 1 | 1.17 |
| NCI-H1993 | 0.445 | 0.46 | 0.576 | 0.619 | 0.527 | 0.673 | 0.58 | 0.67 | 0.633 | 0.825 | 0.964 | 0.906 | 1.13 | 0.959 | 0.793 | 0.739 | 0.716 | 0.817 | 0.757 | 0.833 |
| NCI-H2009 | 0.266 | 0.251 | 0.218 | 0.246 | 0.247 | 0.202 | 0.237 | 0.273 | 0.191 | 0.226 | 1.13 | 1.16 | 1.22 | 1.03 | 1.23 | 0.917 | 1.13 | 1.24 | 1.01 | 1.18 |
